Reference: US9938259B2, “Therapeutic compositions and related methods of use” (Agios Pharmaceuticals, Inc., priority 2009, dated 2018)

What was measured:
PKM2 [1] = target: T1, PKM2 (Homo sapiens, UniProt P14618); experiment: PKM2 Ex-Vivo Assay; type: cell-based; design: endogenous in cells; host or cells: A549; details: A549 cells treated with compound 1-4 hrs, pyruvate kinase activity in lysate; read-out: Ex-Vivo_AC50
Protocol: Described herein is a method to measure the activity of PKM2 activators in living cells and tissue. One of ordinary skill in the art would recognize and understand that this method can be adapted to high throughput format, and can accommodate a variety of cell lines and growth conditions.
In the assay, cells are treated with a compound described herein (i.e., a PKM2 activator). This compound is capable of entering the cell and binding to PKM2, inducing an activated conformation. The excess unbound compound is washed away with PBS, and the cells are lysed by snap-freezing on dry ice, followed by addition of a detergent-containing lysis buffer. The lysate, in which activated PKM2 remains intact, is removed and added to a chemical cocktail including the chemicals necessary to measure pyruvate kinase activity, in an assay that is coupled to the LDHa enzyme. The amount of pyruvate kinase activity that is measured is normalized to the total protein content in the lysate, and related to the concentration of PKM2 activator that was added to the cell. This allows an AC50 (concentration at which PKM2 is activated 50%) value to be derived. The total fold-increase in activity over mock-treated cells can also be calculated, and the “maximum level of activation” can be used to distinguish between compounds that fully activate PKM2 and compounds that can only partially activate PKM2.
• Lysis buffer* • 20 mM Tris-HCl (pH 7.5) • 150 mM NaCl • 1 mM Na2EDTA • 1 mM EGTA • 1% Triton • 2.5 mM sodium pyrophosphate • 1 mM beta-glycerophosphate • 1 mM Na3VO4 • 1 μg/ml leupeptin • 1 mM PMSF** * This lysis buffer (without PMSF) is available from Cell Signaling Technology as a 10× stock (#9803) ** 1 mM PMSF is added fresh from a 100 mM stock solution made up in isopropanol. The stock solution can be stored at 4 degrees indefinitely. Pyruvate Kinase Assay Master Mix (Same for PKM2 Activator Assay):
On the first day (day 1) cells are normally cultured in RPMI-1640 (Lonza #[…].) (with 25 mM Hepes, L-glutamine)/10% FBS. The cells are subsequently trypsinized and plated in RPMI-1640 (Lonza, #12-918F) (no phenol red, supplemented with L-glutamine @300 mg/L (Sigma, #G8540))/10% FBS at the following densities in 96 well plates:
100 uL final volume of media per well.
On the second day (Day 2), the cells should be 70-90% confluent. The cells are then treated with a compound described herein dissolved in media at final assay concentrations in a 96-well assay block (500 uL) (Costar, #3956). The final DMSO concentration is 0.1% (0.5 μL into 500 uL). Compound dilutions in DMSO are prepared so that the final DMSO concentration is constant at all compound concentrations. The media for the assay is RPMI-1640 (no phenol red, with L-glutamine @300 mg/L).
The media is then aspirated carefully from the cells using a multi-channel aspirator. 100 μL of media w/compounds is added onto cells with a multichannel pipette. Each compound concentration is then assayed in triplicate (a duplicate assay is also sufficient).
The cells are treated for 1-4 hrs (this time is determined empirically compared to DMSO reference treatment). During the cell treatment, PBS (containing calcium and magnesium) and lysis buffer is cooled on ice.
The cells are lysed and the pyruvate kinase activity is assayed. The remaining media is aspirated and the cells are washed 2× with 100 uL ice-cold PBS. The PBS is removed, and the cell plate frozen on dry ice for 5 minutes. The cells are lysed in 50 μL cold lysis buffer. Cells are subsequently kept on ice for 5 minutes, and then agitated on a plate shaker for 5 minutes (repeat 3×). Remove 10 μL for protein quantitation (or use OD280 on entire plate).
In a fresh plate, 170 uL of pyruvate kinase assay master mix was added to each well (see end for recipe). 10 uL of cell lysate was then transferred into each well. The assay was initiated upon addition of 20 uL of ADP solution. […]
Target sequence in this assay (P14618 2-531 limits assumed): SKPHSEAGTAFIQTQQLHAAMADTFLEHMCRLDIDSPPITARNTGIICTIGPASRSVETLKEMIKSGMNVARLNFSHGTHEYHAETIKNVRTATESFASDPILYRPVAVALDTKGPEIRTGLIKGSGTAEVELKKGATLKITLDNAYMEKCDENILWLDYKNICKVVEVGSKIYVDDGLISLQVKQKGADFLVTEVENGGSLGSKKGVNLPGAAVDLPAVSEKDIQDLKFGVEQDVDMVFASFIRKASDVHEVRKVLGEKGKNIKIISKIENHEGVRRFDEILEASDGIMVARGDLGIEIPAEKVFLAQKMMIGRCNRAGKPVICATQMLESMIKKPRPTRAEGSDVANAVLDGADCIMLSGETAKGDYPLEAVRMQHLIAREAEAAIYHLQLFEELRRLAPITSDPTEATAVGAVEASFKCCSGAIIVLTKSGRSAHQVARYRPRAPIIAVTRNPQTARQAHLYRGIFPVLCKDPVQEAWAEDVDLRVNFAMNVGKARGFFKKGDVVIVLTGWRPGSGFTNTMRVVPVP

PKM2 [2] = target: T1, PKM2; experiment: PKM2 Assay; type: biochemical; details: activation of PKM2 enzyme, LDH-coupled, absorbance at 340 nm; read-out: PKM2_AC50
Protocol: • PKM2 stock enzyme solution was diluted in Reaction Buffer • 2 μL of compound was added into each well first, and then 180 μL of the Reaction Mix was added. • Reaction mixture with compound (without ADP) were incubated for 30 minutes at 4° C. • Plates were re-equilibrated to room temperature prior to adding 20 μL ADP to initiate the reaction. • Reaction progress was measured as changes in absorbance at 340 nm wavelength at room temperature (25° C.) • Reaction Mix: PKM2 (50 ng/well), ADP (0.7 mM), PEP (0.15 mM), NADH (180 μM), LDH (2 units) in Reaction Buffer • Reaction Buffer: 100 mM KCl, 50 mM Tris pH 7.5, 5 mM MgCl2, 1 mM DTT, 0.03% BSA.
Target sequence in this assay (P14618 whole entry): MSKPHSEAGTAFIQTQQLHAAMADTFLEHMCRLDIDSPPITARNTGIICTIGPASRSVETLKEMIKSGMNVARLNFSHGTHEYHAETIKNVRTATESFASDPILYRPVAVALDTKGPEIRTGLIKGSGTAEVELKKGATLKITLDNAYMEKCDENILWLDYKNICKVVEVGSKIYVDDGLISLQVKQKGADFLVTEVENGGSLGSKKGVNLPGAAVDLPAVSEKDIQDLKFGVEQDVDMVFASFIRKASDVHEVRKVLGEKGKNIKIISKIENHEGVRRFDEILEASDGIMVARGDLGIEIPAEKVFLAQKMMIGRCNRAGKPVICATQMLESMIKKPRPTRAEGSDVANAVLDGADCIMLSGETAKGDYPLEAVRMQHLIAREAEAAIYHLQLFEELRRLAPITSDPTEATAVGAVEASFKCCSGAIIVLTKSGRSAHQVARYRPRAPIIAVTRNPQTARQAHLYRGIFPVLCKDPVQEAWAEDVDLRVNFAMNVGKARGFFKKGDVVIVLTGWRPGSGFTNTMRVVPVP

| Compound | AC50 (PKM2 [1]) [nM] | AC50 (PKM2 [2]) [nM] |
| --- | --- | --- |
| O=S(=O)(Nc1ccc(Cl)cc1)c1cncn1-c1cnccn1 | ≤ 1000 | 1000 to 10000 |
| O=S(=O)(Nc1cc(F)cc(F)c1)c1cccn1-c1ncc(C(F)(F)F)cc1Cl | ≤ 1000 | < 100 |
| O=S(=O)(Nc1ccc(Cl)cc1)c1cccn1-c1ncc(C(F)(F)F)cc1Cl | ≤ 1000 |  |
| O=S(=O)(Nc1cccc(Cl)c1)c1cccn1-c1ncc(C(F)(F)F)cc1Cl | ≤ 1000 | < 100 |
| O=S(=O)(Nc1ccc2c(c1)OCO2)c1cccn1-c1ncccc1Cl | ≤ 1000 | < 100 |
| O=S(=O)(Nc1ccc(F)c(Cl)c1)c1cccn1-c1ccnc(Cl)n1 | > 1000 | < 100 |
| Cc1cc(C)cc(NS(=O)(=O)c2cncn2-c2ncc(C(F)(F)F)cc2Cl)c1 | ≤ 1000 |  |
| Cc1cc(NS(=O)(=O)c2cccn2-c2ncccc2Cl)ccc1F [drawing 161] | ≤ 1000 | 100 to 500 |
| Cc1cc(C)cc(NS(=O)(=O)c2cnn(-c3ncc(C(F)(F)F)cc3Cl)c2)c1 | ≤ 1000 | < 100 |
| Cc1cc(C)cc(NS(=O)(=O)c2cccn2-c2ccc(C(F)(F)F)cn2)c1 | ≤ 1000 | 100 to 500 |
| O=S(=O)(Nc1ccc2ccccc2c1)c1cncn1-c1ncc(C(F)(F)F)cc1Cl [drawing 151] | ≤ 1000 | 100 to 500 |
| Cc1cc(NS(=O)(=O)c2cncn2-c2ncc(C(F)(F)F)cc2Cl)ccc1F | ≤ 1000 | < 100 |
| Cc1cccc(NS(=O)(=O)c2cncn2-c2ncc(C(F)(F)F)cc2Cl)c1 | ≤ 1000 |  |
| O=S(=O)(Nc1ccccc1)c1cccn1-c1ncc(C(F)(F)F)cc1Cl | ≤ 1000 | < 100 |
| O=S(=O)(Nc1ccc(F)c(Cl)c1)c1cncn1-c1ncccn1 [drawing 160] | ≤ 1000 |  |
| Cc1ccc(NS(=O)(=O)c2cccn2-c2ncc(C(F)(F)F)cc2Cl)cc1C | ≤ 1000 | < 100 |
| Cc1cc(C)cc(NS(=O)(=O)c2cccn2-c2ccnc(Cl)n2)c1 | > 1000 | < 100 |
| Cc1cc(C)cc(NS(=O)(=O)c2cccn2-c2nccc(Cl)n2)c1 | > 1000 | < 100 |
| Cc1cc(C)cc(NS(=O)(=O)c2cccn2-c2ncc(C(F)(F)F)cc2Cl)c1 | ≤ 1000 |  |

Other lines, results leading:

| AC50 (PKM2 [1]) [nM] | AC50 (PKM2 [2]) [nM] | Compound |
| --- | --- | --- |
| ≤ 1000 |  | O=S(=O)(Nc1ccc2c(c1)OCO2)c1cccn1-c1ncc(C(F)(F)F)cc1Cl |
| ≤ 1000 | 100 to 500 | Cc1cc(NS(=O)(=O)c2cncn2-c2ncc(C(F)(F)F)cc2Cl)ccc1Cl |
| ≤ 1000 |  | Cc1cc(C)cc(NS(=O)(=O)c2cccn2-c2ncccn2)c1 |
| ≤ 1000 | < 100 | Cc1ccc(NS(=O)(=O)c2cncn2-c2ncc(C(F)(F)F)cc2Cl)cc1C |
| ≤ 1000 | < 100 | O=S(=O)(Nc1ccc2ccccc2c1)c1cncn1-c1ncc(C(F)(F)F)cc1Cl [drawing 128] |
| > 1000 | 100 to 500 | CCc1cccc(NS(=O)(=O)c2cccn2-c2ccnc(Cl)n2)c1 |
| ≤ 1000 | 100 to 500 | Cc1cc(NS(=O)(=O)c2cncn2-c2ncccn2)ccc1F [drawing 158] |
| ≤ 1000 |  | Cc1cc(NS(=O)(=O)c2cccn2-c2ncc(C(F)(F)F)cc2Cl)ccc1F |
| ≤ 1000 | < 100 | Cc1ccc(NS(=O)(=O)c2cccn2-c2ncc(C(F)(F)F)cc2Cl)cc1 |
| ≤ 1000 | 100 to 500 | O=S(=O)(Nc1ccc(F)c(Cl)c1)c1cncn1-c1ncc(C(F)(F)F)cc1Cl |
| ≤ 1000 | < 100 | Cc1cc(NS(=O)(=O)c2cccn2-c2ncc(C(F)(F)F)cc2Cl)ccc1Cl |
| ≤ 1000 |  | O=S(=O)(Nc1ccc(Cl)cc1)c1cccn1-c1ncccc1Cl [drawing 87] |
| ≤ 1000 | 100 to 500 | O=S(=O)(Nc1cccc(Cl)c1)c1cncn1-c1ncc(C(F)(F)F)cc1Cl |
